From ChEMBL document CHEMBL3085719, “Structure-based design and synthesis of potent benzothiazole inhibitors of interleukin-2 inducible T cell kinase (ITK)” (Bioorg Med Chem Lett, 2013)
In brackets after ≈: the same amount, converted by molar mass.

Columns and labels:
[1] = Aqueous solubility of the compound at pH 7.4; type: physicochemical; conditions: buffer
[2] = Volume of distribution at steady state in rat at 1 mg/kg, iv; type: ADME, organism-based; design: dose 1 mg/kg, route intravenous; conditions: in vivo, read-out: Vdss
[3] = target: Tyrosine-protein kinase Yes (Homo sapiens) (UniProt P07947); test: Inhibition of YES (unknown origin) at 0.1 uM relative to control
[4] = target: T1, Tyrosine-protein kinase TXK (Homo sapiens) (UniProt P42681); test: Inhibition of TXK (unknown origin) at 0.1 uM relative to control
T1 sequence (whole entry): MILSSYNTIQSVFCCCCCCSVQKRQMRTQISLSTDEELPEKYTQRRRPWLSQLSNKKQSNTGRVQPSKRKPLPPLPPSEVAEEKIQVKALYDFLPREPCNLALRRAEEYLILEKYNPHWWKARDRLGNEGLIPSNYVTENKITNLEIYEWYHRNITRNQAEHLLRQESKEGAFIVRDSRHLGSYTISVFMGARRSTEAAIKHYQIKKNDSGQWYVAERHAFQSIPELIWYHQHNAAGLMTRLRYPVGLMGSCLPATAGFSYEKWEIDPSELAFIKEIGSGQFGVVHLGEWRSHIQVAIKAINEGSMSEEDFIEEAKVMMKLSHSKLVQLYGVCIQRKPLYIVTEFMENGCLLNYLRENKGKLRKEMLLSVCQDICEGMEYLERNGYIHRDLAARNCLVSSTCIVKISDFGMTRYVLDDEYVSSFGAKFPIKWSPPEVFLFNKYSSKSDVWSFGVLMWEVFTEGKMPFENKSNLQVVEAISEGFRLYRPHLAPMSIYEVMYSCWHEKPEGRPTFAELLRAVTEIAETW

[5] = target: Serine/threonine-protein kinase PAK 4 (Homo sapiens) (UniProt O96013); test: Inhibition of PAK4 (unknown origin) at 0.1 uM relative to control
[6] = target: Receptor-type tyrosine-protein kinase FLT3 (Homo sapiens) (UniProt P36888); test: Inhibition of FLT3 (unknown origin) at 0.1 uM relative to control
[7] = target: Vascular endothelial growth factor receptor 2 (Homo sapiens) (UniProt P35968); test: Inhibition of KDR (unknown origin) at 0.1 uM relative to control
[8] = target: Casein kinase I isoform alpha (Homo sapiens) (UniProt P48729); test: Inhibition of CK1alpha (unknown origin) at 0.1 uM relative to control
[9] = target: Cyclin-dependent kinase 2 (Homo sapiens) (UniProt P24941); test: Inhibition of CDK2 (unknown origin) at 0.1 uM relative to control
[10] = target: Tyrosine-protein kinase ABL1 (Homo sapiens) (UniProt P00519); test: Inhibition of ABL (unknown origin) at 0.1 uM relative to control
[11] = Half life in rat at 5 mg/kg, po; type: ADME, organism-based; design: dose 5 mg/kg, route oral; conditions: in vivo
[12] = Half life in rat at 1 mg/kg, iv; type: ADME, organism-based; design: dose 1 mg/kg, route intravenous; conditions: in vivo
[13] = Clearance in rat at 1 mg/kg, iv; type: ADME, organism-based; design: dose 1 mg/kg, route intravenous; conditions: in vivo
[14] = Oral bioavailability in rat at 5 mg/kg; type: ADME, organism-based; conditions: in vivo
[15] = AUC (last) in rat at 5 mg/kg, po; type: ADME, organism-based; design: time 0 - last, dose 5 mg/kg, route oral; conditions: plasma
[16] = AUC (last) in rat at 1 mg/kg, iv; type: ADME, organism-based; design: time 0 - last, dose 1 mg/kg, route intravenous; conditions: plasma
[17] = Lipophilicity, log D of the compound at pH 7.4; conditions: buffer
[18] = target: Tyrosine-protein kinase Lck (Homo sapiens, UniProt P06239); test: Inhibition of LCK (unknown origin)
[19] = target: T2, Tyrosine-protein kinase ITK/TSK (Homo sapiens, UniProt Q08881); test: Inhibition of ITK in human Jurkat cells assessed as inhibition of PLC-gamma1 phosphorylation by immuno-detection assay; type: cell-based
T2 sequence (Q08881 whole entry): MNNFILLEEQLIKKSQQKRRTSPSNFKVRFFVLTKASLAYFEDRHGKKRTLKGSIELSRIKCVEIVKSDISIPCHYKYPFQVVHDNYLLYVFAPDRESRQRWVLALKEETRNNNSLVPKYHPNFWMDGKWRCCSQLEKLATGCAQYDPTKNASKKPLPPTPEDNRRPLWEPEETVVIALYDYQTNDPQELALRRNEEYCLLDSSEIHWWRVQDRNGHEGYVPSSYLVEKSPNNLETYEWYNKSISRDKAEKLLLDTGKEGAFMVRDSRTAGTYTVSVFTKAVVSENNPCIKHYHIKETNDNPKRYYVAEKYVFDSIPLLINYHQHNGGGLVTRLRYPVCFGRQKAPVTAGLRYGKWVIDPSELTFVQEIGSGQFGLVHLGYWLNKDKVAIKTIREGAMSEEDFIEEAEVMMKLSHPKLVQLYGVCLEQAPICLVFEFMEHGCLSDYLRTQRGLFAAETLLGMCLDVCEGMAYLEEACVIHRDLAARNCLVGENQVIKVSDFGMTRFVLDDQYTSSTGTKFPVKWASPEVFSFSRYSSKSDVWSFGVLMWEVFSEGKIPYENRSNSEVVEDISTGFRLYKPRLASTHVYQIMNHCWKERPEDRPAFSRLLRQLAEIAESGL

[20] = target: T2, Tyrosine-protein kinase ITK/TSK; test: Inhibition of full length GST-tagged ITK (unknown origin) using Ac-EFPIYDFLPAKKK-NH2 as substrate after 35 mins by LC/MS analysis
[21] = test system: RAF proto-oncogene serine/threonine-protein kinase (Homo sapiens), P04049 [Y340D,Y341D]; test: Inhibition of RAF Y340D/Y341D double mutant (unknown origin) at 1 uM relative to control
[22] = target: T3, Muscle, skeletal receptor tyrosine-protein kinase (Homo sapiens) (UniProt O15146); test: Inhibition of MUSK (unknown origin) at 1 uM relative to control
T3 sequence (whole entry): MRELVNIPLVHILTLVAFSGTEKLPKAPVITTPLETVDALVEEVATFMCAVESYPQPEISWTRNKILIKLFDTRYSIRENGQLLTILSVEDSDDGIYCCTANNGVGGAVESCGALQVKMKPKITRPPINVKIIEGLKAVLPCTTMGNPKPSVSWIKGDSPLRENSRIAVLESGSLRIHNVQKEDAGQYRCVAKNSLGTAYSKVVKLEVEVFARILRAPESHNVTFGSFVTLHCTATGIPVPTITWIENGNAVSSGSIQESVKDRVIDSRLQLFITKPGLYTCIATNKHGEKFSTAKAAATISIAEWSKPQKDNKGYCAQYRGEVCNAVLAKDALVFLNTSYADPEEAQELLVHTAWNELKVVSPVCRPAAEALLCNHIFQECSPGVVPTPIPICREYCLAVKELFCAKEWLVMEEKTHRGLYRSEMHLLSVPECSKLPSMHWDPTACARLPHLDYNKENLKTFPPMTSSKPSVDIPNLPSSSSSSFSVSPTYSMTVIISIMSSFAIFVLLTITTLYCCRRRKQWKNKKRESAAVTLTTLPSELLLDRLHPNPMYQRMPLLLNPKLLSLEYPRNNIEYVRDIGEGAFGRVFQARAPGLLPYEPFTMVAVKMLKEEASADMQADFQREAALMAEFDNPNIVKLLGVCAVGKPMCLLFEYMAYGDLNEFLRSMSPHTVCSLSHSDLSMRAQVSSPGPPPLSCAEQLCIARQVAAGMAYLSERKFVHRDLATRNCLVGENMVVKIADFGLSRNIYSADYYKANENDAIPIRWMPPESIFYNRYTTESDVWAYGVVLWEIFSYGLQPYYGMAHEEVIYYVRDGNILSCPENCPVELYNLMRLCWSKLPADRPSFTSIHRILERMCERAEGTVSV

[23] = target: Tyrosine-protein kinase ABL1 (Homo sapiens) (UniProt P00519); test: Inhibition of ABL (unknown origin) at 1 uM relative to control

Chain of Tyrosine-protein kinase Lck (P06239 whole entry): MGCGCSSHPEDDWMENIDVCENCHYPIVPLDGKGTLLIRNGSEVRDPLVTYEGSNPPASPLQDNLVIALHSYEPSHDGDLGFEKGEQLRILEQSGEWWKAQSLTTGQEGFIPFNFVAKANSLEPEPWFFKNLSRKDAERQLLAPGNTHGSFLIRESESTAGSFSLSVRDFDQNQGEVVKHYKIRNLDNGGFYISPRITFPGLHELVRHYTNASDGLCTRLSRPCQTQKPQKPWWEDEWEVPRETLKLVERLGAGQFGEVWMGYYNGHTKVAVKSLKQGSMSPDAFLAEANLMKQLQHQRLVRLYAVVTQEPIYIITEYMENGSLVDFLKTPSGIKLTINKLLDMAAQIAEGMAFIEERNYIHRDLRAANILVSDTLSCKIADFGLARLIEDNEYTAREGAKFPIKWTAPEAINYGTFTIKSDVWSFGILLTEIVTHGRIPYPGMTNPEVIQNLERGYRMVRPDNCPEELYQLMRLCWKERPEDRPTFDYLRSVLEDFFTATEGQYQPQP
Chain of Tyrosine-protein kinase ABL1 (Homo sapiens) (P00519 whole entry): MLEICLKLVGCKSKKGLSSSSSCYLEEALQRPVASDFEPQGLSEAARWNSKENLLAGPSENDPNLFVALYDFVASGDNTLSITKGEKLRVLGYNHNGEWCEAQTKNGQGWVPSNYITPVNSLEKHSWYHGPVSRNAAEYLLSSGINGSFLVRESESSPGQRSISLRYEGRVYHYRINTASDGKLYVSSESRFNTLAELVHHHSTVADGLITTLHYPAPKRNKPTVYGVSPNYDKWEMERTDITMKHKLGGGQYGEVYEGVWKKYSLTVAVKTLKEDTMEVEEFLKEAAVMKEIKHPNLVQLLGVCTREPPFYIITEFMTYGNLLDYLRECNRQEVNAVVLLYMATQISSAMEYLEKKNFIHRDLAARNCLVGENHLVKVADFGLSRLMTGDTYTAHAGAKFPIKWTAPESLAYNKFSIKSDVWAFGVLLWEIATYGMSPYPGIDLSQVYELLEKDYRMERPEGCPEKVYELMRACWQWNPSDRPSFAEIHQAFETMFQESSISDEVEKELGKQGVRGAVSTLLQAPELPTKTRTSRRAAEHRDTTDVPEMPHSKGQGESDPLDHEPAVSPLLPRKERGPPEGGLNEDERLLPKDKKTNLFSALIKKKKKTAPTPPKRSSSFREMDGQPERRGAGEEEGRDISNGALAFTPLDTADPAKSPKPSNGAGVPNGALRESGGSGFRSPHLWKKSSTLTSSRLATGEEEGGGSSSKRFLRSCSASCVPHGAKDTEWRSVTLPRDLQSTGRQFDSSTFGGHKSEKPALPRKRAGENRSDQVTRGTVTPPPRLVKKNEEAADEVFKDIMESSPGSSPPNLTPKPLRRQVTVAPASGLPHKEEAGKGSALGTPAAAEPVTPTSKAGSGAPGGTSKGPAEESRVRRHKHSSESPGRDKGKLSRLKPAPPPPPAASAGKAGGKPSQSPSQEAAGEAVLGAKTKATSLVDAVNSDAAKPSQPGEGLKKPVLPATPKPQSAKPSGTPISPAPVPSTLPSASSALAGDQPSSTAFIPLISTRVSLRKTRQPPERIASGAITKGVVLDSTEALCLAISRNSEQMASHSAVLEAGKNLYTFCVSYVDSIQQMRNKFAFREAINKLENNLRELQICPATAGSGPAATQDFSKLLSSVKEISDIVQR
Chain of Serine/threonine-protein kinase PAK 4 (Homo sapiens) (O96013 whole entry, looked up): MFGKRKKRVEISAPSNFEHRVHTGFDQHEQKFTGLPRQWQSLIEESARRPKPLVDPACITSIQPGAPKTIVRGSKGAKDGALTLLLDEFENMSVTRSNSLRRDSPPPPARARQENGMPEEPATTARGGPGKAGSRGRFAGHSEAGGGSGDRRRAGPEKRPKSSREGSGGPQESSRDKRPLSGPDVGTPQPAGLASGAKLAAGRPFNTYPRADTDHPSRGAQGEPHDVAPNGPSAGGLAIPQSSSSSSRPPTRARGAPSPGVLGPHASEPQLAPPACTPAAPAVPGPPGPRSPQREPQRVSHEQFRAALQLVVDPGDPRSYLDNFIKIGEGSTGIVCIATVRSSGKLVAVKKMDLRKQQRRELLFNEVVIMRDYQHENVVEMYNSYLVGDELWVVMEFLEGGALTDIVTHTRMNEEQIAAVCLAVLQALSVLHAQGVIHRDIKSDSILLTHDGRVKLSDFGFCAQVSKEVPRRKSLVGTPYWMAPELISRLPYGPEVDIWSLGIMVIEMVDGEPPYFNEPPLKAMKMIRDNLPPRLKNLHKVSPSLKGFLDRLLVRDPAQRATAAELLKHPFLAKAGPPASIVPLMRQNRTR
Chain of RAF proto-oncogene serine/threonine-protein kinase (Homo sapiens), P04049 [Y340D,Y341D] (P04049 whole entry Y340D/Y341D): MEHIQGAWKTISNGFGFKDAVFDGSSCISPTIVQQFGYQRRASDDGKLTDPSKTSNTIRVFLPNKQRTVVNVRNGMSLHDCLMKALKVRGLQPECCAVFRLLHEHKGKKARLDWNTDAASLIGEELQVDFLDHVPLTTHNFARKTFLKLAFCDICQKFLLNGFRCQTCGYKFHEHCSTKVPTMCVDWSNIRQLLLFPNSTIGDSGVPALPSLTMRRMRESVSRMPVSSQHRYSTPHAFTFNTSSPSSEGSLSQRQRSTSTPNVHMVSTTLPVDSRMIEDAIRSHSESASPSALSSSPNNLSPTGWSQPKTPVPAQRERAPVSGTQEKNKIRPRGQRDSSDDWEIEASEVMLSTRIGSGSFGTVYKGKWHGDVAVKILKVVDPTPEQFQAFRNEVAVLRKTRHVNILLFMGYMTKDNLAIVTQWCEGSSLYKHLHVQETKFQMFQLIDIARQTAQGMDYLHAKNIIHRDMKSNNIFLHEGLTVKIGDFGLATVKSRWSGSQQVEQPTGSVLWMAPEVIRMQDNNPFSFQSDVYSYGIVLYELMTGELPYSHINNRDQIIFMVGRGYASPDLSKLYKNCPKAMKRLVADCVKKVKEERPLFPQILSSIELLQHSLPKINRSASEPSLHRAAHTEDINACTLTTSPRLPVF
Chain of Vascular endothelial growth factor receptor 2 (Homo sapiens) (P35968 whole entry, canonical isoform): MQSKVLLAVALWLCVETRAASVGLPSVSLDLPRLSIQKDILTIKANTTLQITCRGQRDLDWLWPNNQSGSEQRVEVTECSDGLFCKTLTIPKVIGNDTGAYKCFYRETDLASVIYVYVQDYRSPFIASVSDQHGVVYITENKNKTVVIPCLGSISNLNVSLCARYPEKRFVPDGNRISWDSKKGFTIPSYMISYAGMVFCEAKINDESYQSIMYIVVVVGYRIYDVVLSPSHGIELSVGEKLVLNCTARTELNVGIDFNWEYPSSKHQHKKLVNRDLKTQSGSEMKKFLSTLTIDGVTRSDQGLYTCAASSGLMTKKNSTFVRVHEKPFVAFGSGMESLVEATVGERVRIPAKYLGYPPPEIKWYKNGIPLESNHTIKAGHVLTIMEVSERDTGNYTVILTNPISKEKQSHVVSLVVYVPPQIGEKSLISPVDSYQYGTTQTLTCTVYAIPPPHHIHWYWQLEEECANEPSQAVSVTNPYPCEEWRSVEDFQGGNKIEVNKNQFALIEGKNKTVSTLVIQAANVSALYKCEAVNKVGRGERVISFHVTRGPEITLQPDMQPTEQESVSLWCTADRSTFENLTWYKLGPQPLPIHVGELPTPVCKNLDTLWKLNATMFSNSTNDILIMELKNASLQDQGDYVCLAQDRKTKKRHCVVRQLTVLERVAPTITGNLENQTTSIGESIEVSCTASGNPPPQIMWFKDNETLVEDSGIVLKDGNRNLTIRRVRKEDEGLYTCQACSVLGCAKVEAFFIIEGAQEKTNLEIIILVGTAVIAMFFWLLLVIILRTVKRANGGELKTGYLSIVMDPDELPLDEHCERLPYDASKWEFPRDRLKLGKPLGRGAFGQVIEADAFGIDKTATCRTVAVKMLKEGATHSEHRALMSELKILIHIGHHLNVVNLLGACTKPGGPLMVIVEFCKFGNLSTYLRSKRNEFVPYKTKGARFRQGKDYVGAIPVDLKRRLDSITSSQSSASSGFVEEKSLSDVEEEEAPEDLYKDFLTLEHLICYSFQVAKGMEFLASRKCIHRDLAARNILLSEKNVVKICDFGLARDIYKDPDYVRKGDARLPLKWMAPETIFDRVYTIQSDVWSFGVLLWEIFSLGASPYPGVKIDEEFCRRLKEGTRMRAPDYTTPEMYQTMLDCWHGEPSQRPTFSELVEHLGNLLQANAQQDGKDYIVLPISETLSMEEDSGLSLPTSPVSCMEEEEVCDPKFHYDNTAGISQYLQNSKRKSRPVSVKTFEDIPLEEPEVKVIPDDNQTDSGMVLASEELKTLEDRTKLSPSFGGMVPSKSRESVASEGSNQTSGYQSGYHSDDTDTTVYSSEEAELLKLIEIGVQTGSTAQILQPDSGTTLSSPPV
Chain of Casein kinase I isoform alpha (Homo sapiens) (P48729 2-337 limits assumed): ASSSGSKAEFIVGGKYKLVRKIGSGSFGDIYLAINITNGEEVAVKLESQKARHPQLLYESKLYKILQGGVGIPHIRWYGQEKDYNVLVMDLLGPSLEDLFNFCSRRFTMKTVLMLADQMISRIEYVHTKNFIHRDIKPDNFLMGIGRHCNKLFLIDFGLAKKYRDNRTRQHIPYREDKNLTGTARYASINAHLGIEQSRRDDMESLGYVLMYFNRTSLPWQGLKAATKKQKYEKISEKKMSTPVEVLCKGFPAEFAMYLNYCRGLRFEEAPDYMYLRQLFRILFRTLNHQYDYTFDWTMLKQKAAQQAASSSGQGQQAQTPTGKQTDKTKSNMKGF

| SMILES | solubility [1] | logD [17] | IC50 [19] | Ki [20] | also measured |
| --- | --- | --- | --- | --- | --- |
| COc1ccc([C@H]2C[C@@H]2C(=O)Nc2nc3ccc(OC)cc3s2)cc1 (racemic) | 11 µM (≈ 3.9 µg/mL) | – | – | – | – |
| COc1ccc([C@H]2C[C@@H]2C(=O)Nc2nc3ccc(-c4cn[nH]c4)cc3s2)cc1 | < 1 µM | 4.4 | – | – | – |
| CN(C)Cc1ccc([C@H]2C[C@@H]2C(=O)Nc2nc3ccc(-c4cccnc4)cc3s2)cc1 (racemic) | < 1 µM | 2.7 | – | – | – |
| COc1ccc(C2CC2C(=O)Nc2nc3ccc(-c4cn[nH]c4)cc3s2)cc1 (racemic) | < 1 µM | 4.4 | – | – | – |
| COc1ccc2nc(NC(=O)[C@H]3C[C@@H]3c3ccccc3)sc2c1 (racemic) | < 2 µM | – | – | – | – |
| CCN(CC)Cc1cc([C@H]2C[C@@H]2C(=O)Nc2nc3ccc(-c4cn[nH]c4)cc3s2)ccc1OC | 180 µM (≈ 85.6 µg/mL) | 2.6 | – | – | – |
| COc1ccc([C@H]2C[C@@H]2C(=O)Nc2nc3ccc(-c4cncc(CO)c4)cc3s2)cc1 (racemic) | – | – | > 20000 nM | 5.3 nM | inhibition [21]: > 50%; inhibition [22]: > 50%; inhibition [23]: > 50% |

Continued, in another order:

| solubility [1] | logD [17] | IC50 [19] | Ki [20] | SMILES | also measured |
| --- | --- | --- | --- | --- | --- |
| < 1 µM | 3 | 91 nM | 0.7 nM | CN(C)Cc1ccc([C@H]2C[C@@H]2C(=O)Nc2nc3ccc(-c4cn[nH]c4)cc3s2)cc1 | Vd [2]: 3.2 L/kg; inhibition [3]: > 50%; inhibition [4]: > 50%; inhibition [5]: > 50%; inhibition [6]: > 50%; inhibition [7]: > 50%; inhibition [8]: > 50%; inhibition [9]: > 50%; inhibition [10]: > 50%; half-life [11]: 3 h; half-life [12]: 3.4 h; clearance [13]: 12 mL/min/kg; bioavailability [14]: 35%; AUC(0-t) [15]: 4.8 µM·h; AUC(0-t) [16]: 2.8 µM·h; Ki [18]: 55 nM |
| < 1 µM | 3 | 89 nM | 0.6 nM | CN(C)Cc1ccc(C2CC2C(=O)Nc2nc3ccc(-c4cn[nH]c4)cc3s2)cc1 (racemic) | Ki [18]: 46 nM |
| 11 µM (≈ 4.59 µg/mL) | 2.8 | – | – | CN(C)Cc1cccc([C@H]2C[C@@H]2C(=O)Nc2nc3ccc(-c4cn[nH]c4)cc3s2)c1 (racemic) | – |
